Assay results: patent US20020039778A1, “Isolated and purified DNA molecule and protein for the degradation of triazine compounds” (Regents of the University of Minnesota, priority 1995, published 2002)

Columns and labels:
[1] = target: T1, N-ethylammeline chlorohydrolase (TrzA) (Gordonia rubripertincta, UniProt Q52725); conditions: cited from earlier work
T1 sequence (Q52725 1-477): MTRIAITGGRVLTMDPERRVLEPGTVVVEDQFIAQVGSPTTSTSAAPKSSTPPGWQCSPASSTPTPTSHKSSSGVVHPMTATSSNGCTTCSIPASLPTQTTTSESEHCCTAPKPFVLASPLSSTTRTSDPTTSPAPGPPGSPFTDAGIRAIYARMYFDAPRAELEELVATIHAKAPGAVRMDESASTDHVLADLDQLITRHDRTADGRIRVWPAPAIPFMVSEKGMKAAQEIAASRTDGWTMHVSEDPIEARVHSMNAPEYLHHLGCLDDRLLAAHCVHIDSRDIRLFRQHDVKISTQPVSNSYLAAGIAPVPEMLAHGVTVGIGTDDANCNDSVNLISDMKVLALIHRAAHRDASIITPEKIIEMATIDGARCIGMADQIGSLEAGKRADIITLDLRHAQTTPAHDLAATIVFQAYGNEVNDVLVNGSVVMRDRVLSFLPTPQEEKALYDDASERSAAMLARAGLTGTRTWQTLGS

[2] = test system: B. japonicum strain USDA 123 (pMD1); experiment: Atrazine degradation by Bradyrhizobium japonicum carrying pMD1 (plate clearing, HPLC); format: cell-based
Method: Atrazine degradation gene expressed in Bradyrhizobium japonicum. […] The pMD1 was transferred from E. coli DH5α (pMD1) to B. japonicum strains USDA 123 by conjugation. This was done by using helper plasmid pRK2073 and the triparental mating procedure of Leong et al., J. Bio. Chem, 257, 8724-8730 (1982). This was done using a modified patch mating technique. Equal quantities of E. coli DH5α (pMD1), […] and spread to the size of a nickel. The patch was incubated for 4 days at 28° C. and the resulting bacterial growth was removed from the pate, serially diluted in 0.85% NaCl plus 0.01% tween 80, and spread onto the surface of minimal AG plates (Ag without yeast extract) containing 60 μg/ml tetracycline. Plates were incubated for 2 weeks at 28° C. […] Atrazine degradation was verified by HPLC analysis. The identity of transconjugants was verified by using strain specific fluorescent antibodies prepared according to Schmidt et al., J. Bacteriol., 95, 1987-1992 (1968).

[3] = target: T2, atrazine chlorohydrolase (AtzA) (Pseudomonas sp., UniProt P72156); experiment: Enzyme kinetics of purified AtzA (HPLC)
Method: (§2) Enzyme Kinetics. […] The reactions were stopped by boiling the reaction tubes at specific times, the addition of 500 μl acetonitrile and rapid freezing at −80° C. Thawed samples were centrifuged at 14,000 rpm for 10 minutes, the supernatants were filtered through a 0.2 μM filter, and placed into crimp-seal HPLC vials. HPLC analysis was done as described above.

[4] = target: T2, atrazine chlorohydrolase (AtzA); experiment: Substrate range of purified AtzA in vitro; format: biochemical, Pseudomonas sp. strain ADP; set-up: made in house; host or cells: E. coli transformed with pMD4 (1.9-kb AvaI genomic fragment in pACYC184); conditions: purified enzyme in vitro
Method: High performance liquid chromatography (HPLC) analysis was performed using a Hewlett-Packard HP 1090 Liquid Chromatograph system equipped with a photodiode array detector and interfaced to an HP 79994A Chemstation. […] Linear gradients of 0-6 minutes, 10-25% acetonitrile (ACN); 6-21 minutes, 25-65% ACN; 21-23 minutes, 65-100% ACN; and 23-25 minutes 100% ACN, were used. Spectral data of the column eluent was acquired between 200-400 nm (12 nm bandwidth per channel) at a sampling frequency of 640 milliseconds. Spectra were referenced against a signal at 550 nm.
The solution was loaded onto a Mono Q HR 16/10 Column (Pharmacia LKB Biotechnology, Uppsala, Sweden). The column was washed with 25 mM MOPS buffer (pH 6.9), and the protein was eluted with a 0-0.5 M KCl gradient. Protein eluting from the column was monitored at 280 nm by using a Pharmacia U.V. protein detector. Pooled fractions containing the major peak were dialyzed overnight against 1 liter 25 mM MOPS buffer (pH 6.9). The dialyzed material was assayed for atrazine degradation ability by using HPLC analysis (see above) and analyzed for purity by sodium dodecyl sulfate (SDS) polyacrylamide gel electrophoreses (Laemlli).
The AtzA protein was examined for its ability to degrade various triazine compounds in vitro.

[5] = test system: Pseudomonas species strain ADP; experiment: Effect of simple nitrogen sources on atrazine degradation (plate clearing); format: cell-based; conditions: solid media with 500 ppm atrazine, 2 weeks of incubation at 28° C. or 37° C.
Method: (§1) Analytical methods: plate assays, high performance liquid chromatography (HPLC), thin layer chromatography (TLC), and liquid-liquid partitioning analyses. Atrazine or hydroxyatrazine were incorporated in solid LB or minimal medium, as described in Mandelbaum et al., Appl. Environ. Microbiol., 61, 1451-1457 (1995), at a final concentration of 500 μg/ml to produce an opaque suspension of small particles in the clear agar. The degradation of atrazine or hydroxyatrazine by wild-type and recombinant bacteria was indicated by a zone of clearing surrounding colonies.

[6] = test system: E. coli DH5α (pMD1 or pMD2); experiment: as above; format: cell-based, Escherichia coli
Method: as §1

CCNc1nc(Cl)nc(NC(C)C)n1 = experiment: purified protein, by the assay type; conditions: other: purified AtzA 50 μg/ml, 25 mM MOPS pH 6.9, room temperature
Method: as §2

[7] = protein concentration of 50 mg/liter

T2 sequence (P72156 whole entry, the tested form may be a part): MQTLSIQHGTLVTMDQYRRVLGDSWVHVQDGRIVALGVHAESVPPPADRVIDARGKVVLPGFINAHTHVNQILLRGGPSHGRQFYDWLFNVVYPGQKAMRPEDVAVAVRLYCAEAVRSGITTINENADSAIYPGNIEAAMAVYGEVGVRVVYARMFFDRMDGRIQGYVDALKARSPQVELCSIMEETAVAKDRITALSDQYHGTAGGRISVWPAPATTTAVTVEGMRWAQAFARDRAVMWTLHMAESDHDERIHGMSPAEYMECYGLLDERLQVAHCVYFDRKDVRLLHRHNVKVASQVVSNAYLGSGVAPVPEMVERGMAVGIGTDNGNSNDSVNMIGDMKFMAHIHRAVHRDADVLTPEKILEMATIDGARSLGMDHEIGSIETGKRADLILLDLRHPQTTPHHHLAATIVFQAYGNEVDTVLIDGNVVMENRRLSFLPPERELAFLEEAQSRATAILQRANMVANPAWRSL

CCNc1nc(Cl)nc(NC(C)C)n1 [Atrazine, 2-chloro-4-ethylamino-6-isopropylamino-1,3,5-s-triazine]
Degradation of substrate by TrzA [1]: does not degrade | time to clear atrazine on plates ([2]; AG media plates containing up to 500 ppm atrazine): 10 days | atrazine in overnight culture broth by HPLC ([2]; supplied atrazine 33 ppm): no atrazine detectable | time to degrade about 100 μM of atrazine to about 1 μM [3, 7]: about 1.35 hours | time to degrade about 30 ppm of atrazine to about 3 ppb [3, 7]: about 2.6 hours | Km ([3]; read-out: Km of AtzA for atrazine, purified AtzA 50 μg/ml, 25 mM MOPS pH 6.9, room temperature): 125 µM

CCNc1nc(N)nc(Cl)n1 [Desisopropylatrazine, 2-chloro-4-ethylamino-6-amino-s-triazine]
Degradation of substrate by TrzA [1]: ability to dechlorinate | Km ([1]; reported for the related triazine hydrolase TrzA): 82 µM | Degradation of substrate by AtzA ([4]; listed as deisopropylatrazine): ability to dechlorinate

Nc1nc(N)nc(N)n1 [Melamine, 2,4,6-triamino-s-triazine]
Degradation of substrate by AtzA [4]: not substrates | Degradation of substrate by AtzA ([4]; listed as melamine): does not degrade

CCNc1nc(Cl)nc(NCC)n1 [Simazine, 2-chloro-4,6-diethylamino-s-triazine]
Degradation of substrate by TrzA [1]: does not degrade

CCNc1nc(Cl)nc(NC(C)(C)C)n1 [Tertbutylazine, 2-chloro-4-ethylamino-6-terbutylamino-s-triazine]
Degradation of substrate by AtzA [4]: not substrates

Cl.N [ammonium chloride]
ammonium chloride concentration sufficient to inhibit visible clearing of atrazine [5]: 0.6 to 1.2 mM | tolerance for ammonium chloride with concomitant atrazine degradation, relative to wild-type ([6]; E. coli DH5α (pMD1 or pMD2) vs Pseudomonas strain ADP): 40-80 fold | ammonium chloride concentration in whose presence atrazine degradation (clearing) was observed ([6]; solid media with 500 ppm atrazine): ≤ 48 mM

atrazine chlorohydrolase (AtzA) (Pseudomonas sp. ADP)
Km (CCNc1nc(Cl)nc(NC(C)C)n1): 125 µM
